Measured values taken from US20240366609A1 (Genentech, Inc., priority 2021, published 2024).

Tests used:
[1] = test system: SK-MEL-30 melanoma cell line harboring NRAS^Q61K mutation; assay: SK-MEL-30 xenograft, belvarafenib and binimetinib (Example 9); type: in vivo, mice; conditions: 21 days
[2] = test system: SK-MEL-30 human melanoma cell line harboring NRAS^Q61K mutation; assay: SK-MEL-30 xenograft, belvarafenib and cobimetinib (Example 7); conditions: 10 mg/kg QD orally, 14 days
Description: (§1) Tumor volume in mm^3 and body weight change were measured at days 1, 4, 9 and 15.
(§2) Maximum inhibition rate (max inhib (%)) was determined by (1−(mean relative tumor weight in treated group/mean relative tumor weight control group))*100.

[3] = Phase 1a/b study NCT03284502: pharmacokinetic analysis; type: in vivo, human; conditions: steady-state, dose normalized
[4] = clinical pharmacokinetics of cobimetinib; conditions: for half-life: oral administration
[5] = plasma protein binding of cobimetinib; type: in vitro ADME; conditions: concentration-independent
[6] = test system: SK-MEL-30 human melanoma cell line harboring NRAS^Q61K mutation; conditions: mouse, in vivo, po
Description: as §1, §2

[7] = test system: Calu-6 NSCLC cell line harboring KRAS^Q61K mutation; assay: Calu-6 xenograft, belvarafenib and selumetinib (Example 10); type: in vivo, mice; conditions: 17 days
[8] = atezolizumab Study PCD4989g; type: in vivo, human; conditions: single agent
Description: The pharmacokinetics of atezolizumab administered as a single agent have been characterized based on clinical data from study PCD4989g and are consistent with a currently ongoing Phase III Study WO29522 in first line treatment of TNBC. Atezolizumab anti-tumor activity has been observed across doses from 1 to 20 mg/kg. […] Atezolizumab dosing schedules of q3w and q2w have been tested. A fixed dose of atezolizumab 800 mg every two weeks (q2w) (equivalent to a body weight-based dose of 10 mg/kg q2w) results in equivalent exposure to the Phase III dose of 1200 mg administered every three weeks (q3w). The q3w schedule is being used in multiple Phase III studies of atezolizumab monotherapy across multiple tumor types and the q2w predominantly used in combination with chemotherapy regimens.

[9] = test system: melanoma; conditions: patients who have previously undergone anti-PD-1 treatment; cited from earlier work
[10] = test system: advanced melanoma; conditions: cited from earlier work

Compound: Cn1cnc2c(F)c(Nc3ccc(Br)cc3F)c(C(=O)NOCCO)cc21 [Binimetinib]
- Day for max inhib ([1]; 10 mg/kg QD orally): Day 21
- Max inhib. Rate (%) ([1]; 10 mg/kg QD orally): 13.6%
- Max weight loss (%) ([1]; 10 mg/kg QD orally): 0.8%
- Day for max inhib ([1]; 30 mg/kg QD orally): Day 21
- Max inhib. Rate (%) ([1]; 30 mg/kg QD orally): 27.1%
- tolerability ([1]; single agent, 10 and 30 mg/kg q.d.): well tolerated without marked body weight loss

Compound: O=C(c1ccc(F)c(F)c1Nc1ccc(I)cc1F)N1CC(O)([C@@H]2CCCCN2)C1 [Cobimetinib, (S)-[3,4-Difluoro-2-(2-fluoro-4-iodophenylamino)phenyl][3-hydroxy-3-(piperidin-2-yl)azetidin-1-yl]methanone]
- Day for max inhib [2]: Day 15
- Max inhib. Rate (%) [2]: 54.3%
- drug-drug interaction with belvarafenib impacting cobimetinib exposure [3]: no apparent drug-drug interaction
- pharmacokinetics in the fed state compared with the fasted state ([4]; healthy subjects): not altered
- bioavailability ([4]; human, in vivo, oral): 45.9%
- Tmax ([4]; human, in vivo, po): 1 to 3 h
- half-life ([4]; human, in vivo, po, mean terminal half-life (t½)): 48.8 h
- half-life ([4]; human, in vivo, po, terminal half-life (t½), range): 23.1 to 80 h
- effect of the proton pump inhibitor rabeprazole on cobimetinib pharmacokinetics ([4]; presence or absence of a high-fat meal): minimal effect
- binding to plasma proteins [5]: 95%
- tolerability [6]: well tolerated without body weight loss

Compound: Cn1cnc2c(F)c(Nc3ccc(Br)cc3Cl)c(C(=O)NOCCO)cc21 [Selumetinib, reference compound]
- Day for max inhib ([7]; 5 mg/kg BID orally): Day 18
- Max inhib. Rate (%) ([7]; 5 mg/kg BID orally): 59.0%
- Max weight loss (%) ([7]; 5 mg/kg BID orally): 1.5%
- tolerability ([7]; single agent): well tolerated with or without minimal body weight loss

Compound: Atezolizumab: humanized IgG1 monoclonal antibody that targets PD-L1
- Kaplan-Meier estimated overall 24-week progression-free survival (PFS) rate [8]: 33%

Compound: ipilimumab: anti-CTLA4 immunotherapy agent
- response rate [9]: approximately 15%

Compound: nivolumab: anti-PD-1 immunotherapy agent, monotherapy arm of a Phase III trial
- median OS ([10]; 5 years minimum follow-up): 36.9 months
- PFS ([10]; Phase III trial of 1296 patients): 6.9 months
